Test results: ChEMBL document CHEMBL2331280, “Cytotoxic, antitopoisomerase IIα, and anti-HIV-1 activities of triterpenoids isolated from leaves and twigs of Gardenia carinata” (J Nat Prod, 2013)
The source made the active and inactive calls. The calls are words filed in the database; no cut-off is given here.

Columns and labels:
[1] = test system: Col2; test: Cytotoxicity against human Col2 cells after 72 hrs by sulforhodamine B assay; assay type: functional; settings: Col2, 72 h, read-out: ED50 (the source's name)
[2] = biological target: Human immunodeficiency virus type 1 reverse transcriptase (Human immunodeficiency virus 1) (UniProt Q72547); test: Inhibition of HIV-1 reverse transcriptase assessed as decrease in incorporation of [3H]TTP into polyA template at 200 ug/ml
[3] = test system: Lu1; test: Cytotoxicity against human Lu1 cells after 72 hrs by sulforhodamine B assay; assay type: functional; settings: Lu1, 72 h, read-out: ED50 (the source's name)
[4] = test system: KB; test: Cytotoxicity against human KB cells after 72 hrs by sulforhodamine B assay; assay type: functional; settings: read-out: ED50 (the source's name)
[5] = test system: P388; test: Cytotoxicity against mouse P388 cells after 48 hrs by sulforhodamine B assay; assay type: functional; settings: P388, 48 h, read-out: ED50 (the source's name)
[6] = test system: HEK293; test: Cytotoxicity against human HEK293 cells after 72 hrs by sulforhodamine B assay; assay type: functional; settings: HEK293, 72 h, read-out: ED50 (the source's name)
[7] = Cytotoxicity against human 1A2 cells assessed as inhibition of metabolic activity by XTT assay; assay type: ADME, cell-based
[8] = Cytotoxicity against rat ASK cells after 72 hrs by sulforhodamine B assay; assay type: functional; settings: read-out: ED50 (the source's name)
[9] = test system: MCF7; test: Cytotoxicity against human MCF7 cells after 72 hrs by sulforhodamine B assay; assay type: functional; settings: MCF7, 72 h, read-out: ED50 (the source's name)
[10] = biological target: DNA topoisomerase 2-alpha (Homo sapiens) (UniProt P11388); test: Inhibition of human DNA topoisomerase 2 alpha-mediated supercoiled pBR322 DNA relaxation at 20 uM after 1 hr by agarose gel electrophoresis
Sequence of DNA topoisomerase 2-alpha (Homo sapiens) (P11388 whole entry): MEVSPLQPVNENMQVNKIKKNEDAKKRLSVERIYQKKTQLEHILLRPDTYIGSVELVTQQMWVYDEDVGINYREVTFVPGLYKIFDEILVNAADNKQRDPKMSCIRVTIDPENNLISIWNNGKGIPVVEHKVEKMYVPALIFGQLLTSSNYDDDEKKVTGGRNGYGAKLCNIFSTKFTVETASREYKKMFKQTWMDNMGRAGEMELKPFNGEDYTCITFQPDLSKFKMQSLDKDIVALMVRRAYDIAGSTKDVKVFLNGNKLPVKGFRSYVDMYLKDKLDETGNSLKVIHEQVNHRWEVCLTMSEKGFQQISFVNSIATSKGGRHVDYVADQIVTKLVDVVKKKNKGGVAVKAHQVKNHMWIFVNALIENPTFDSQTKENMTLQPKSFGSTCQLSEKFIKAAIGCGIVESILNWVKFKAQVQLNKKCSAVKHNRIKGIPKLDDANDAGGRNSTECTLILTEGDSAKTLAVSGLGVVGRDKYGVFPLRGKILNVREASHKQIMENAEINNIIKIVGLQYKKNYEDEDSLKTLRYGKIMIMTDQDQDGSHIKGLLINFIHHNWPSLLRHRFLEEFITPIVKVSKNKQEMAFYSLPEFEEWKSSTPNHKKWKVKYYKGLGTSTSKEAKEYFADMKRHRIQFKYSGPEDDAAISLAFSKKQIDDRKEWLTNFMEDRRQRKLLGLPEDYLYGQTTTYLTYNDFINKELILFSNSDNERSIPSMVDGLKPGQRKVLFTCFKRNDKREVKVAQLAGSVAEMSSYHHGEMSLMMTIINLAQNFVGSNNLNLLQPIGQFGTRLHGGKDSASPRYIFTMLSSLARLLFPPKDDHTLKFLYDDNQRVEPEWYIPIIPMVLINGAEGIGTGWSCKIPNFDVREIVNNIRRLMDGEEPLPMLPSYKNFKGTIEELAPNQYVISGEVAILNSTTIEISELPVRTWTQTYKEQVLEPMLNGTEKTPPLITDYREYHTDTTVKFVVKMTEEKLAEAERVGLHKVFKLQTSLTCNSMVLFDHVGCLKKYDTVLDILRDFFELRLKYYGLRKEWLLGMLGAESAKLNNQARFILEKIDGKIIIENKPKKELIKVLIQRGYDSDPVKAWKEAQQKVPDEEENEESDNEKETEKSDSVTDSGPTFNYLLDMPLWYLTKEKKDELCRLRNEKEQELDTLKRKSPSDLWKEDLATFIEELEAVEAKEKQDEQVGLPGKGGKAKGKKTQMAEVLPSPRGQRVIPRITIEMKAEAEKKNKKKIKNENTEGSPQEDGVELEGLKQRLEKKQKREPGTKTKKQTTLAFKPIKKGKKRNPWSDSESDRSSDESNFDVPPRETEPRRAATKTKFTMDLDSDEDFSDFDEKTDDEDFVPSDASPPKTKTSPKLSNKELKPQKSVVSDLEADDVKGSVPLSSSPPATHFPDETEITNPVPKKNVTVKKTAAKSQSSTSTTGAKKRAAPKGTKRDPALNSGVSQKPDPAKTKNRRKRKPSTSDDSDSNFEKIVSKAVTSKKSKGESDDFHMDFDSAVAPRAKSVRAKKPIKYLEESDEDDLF

[11] = Selectivity index, ratio of IC50 for human 1A2 cells to EC50 for deltaTat/rev deffective HIV-1 MC99 infected in human 1A2 cells; assay type: toxicity, cell-based; settings: read-out: Ratio IC50/EC50
[12] = test system: Human immunodeficiency virus 1; test: Antiviral activity against deltaTat/rev deffective HIV-1 MC99 infected in human 1A2 cells assessed as inhibition of syncytia formation after 3 days; assay type: functional, organism-based; settings: Human immunodeficiency virus 1, MC99, 1A2, 72 h
[13] = biological target: Human immunodeficiency virus type 1 reverse transcriptase (Human immunodeficiency virus 1, UniProt Q72547); test: Inhibition of HIV-1 reverse transcriptase assessed as decrease in incorporation of [3H]TTP into polyA template

Structure (SMILES)	EC50 [1]	inhibition [2]	EC50 [3]	EC50 [4]	EC50 [5]	EC50 [6]	IC50 [7]	EC50 [8]	EC50 [9]	inhibition [10]	selectivity ratio [11]	EC50 [12]	IC50 [13]
C=C1C(=O)O[C@@H]2C[C@@H]3[C@]4(CC[C@]5(C)[C@@H]([C@H](C)CC(=O)C=C(C)C)CC[C@@]35C)C[C@]4(CCC(=O)OC)[C@H]12 [SECAUBRYOLIDE]	5.8 µM	0.4%	5 µM	2 µM	1 µM	3.2 µM	< 7.9 µM	4.6 µM	4.2 µM	Active	–	–	–
C=C1C(=O)O[C@@H]2C[C@@H]3[C@]4(CC[C@]5(C)[C@@H]([C@H](C)CC(=O)CC(C)(C)O)CC[C@@]35C)C[C@]4(CCC(=O)OC)[C@H]12 (relative stereo)	6.2 µM	35.9%	7.2 µM	6.8 µM	1.4 µM	4.1 µM	< 15.2 µM	5.8 µM	5.2 µM	Active	–	–	–
COc1cc([C@@H]2c3cc4c(cc3[C@@H](O[C@@H]3O[C@@H]5CO[C@@H](C)O[C@H]5[C@H](O)[C@H]3O)[C@H]3COC(=O)[C@H]23)OCO4)cc(OC)c1O	–	–	–	–	–	–	–	–	–	59%	–	–	–
Cc1c2ccncc2c(C)c2c1[nH]c1ccccc12 [ELLIPTECINE]	2.2 µM	–	1.1 µM	2.2 µM	1.9 µM	1.9 µM	–	2.2 µM	2.3 µM	–	–	–	–
C=C1COC(=O)CC[C@]23C[C@]24CC[C@]2(C)[C@@H]([C@H](C)CC(=O)C=C(C)C)CC[C@@]2(C)[C@@H]4CC[C@@H]13 (relative stereo)	> 10 µM	11.6%	> 10 µM	> 10 µM	> 10 µM	> 10 µM	> 138 µM	> 10 µM	> 10 µM	–	> 3.4	41.3 µM	–
C=C(CO)[C@@H]1CC[C@@H]2[C@H](CC[C@]3(C)[C@@H]([C@H](C)CC(=O)C=C(C)C)CC[C@@]23C)C[C@]12CCC(=O)O2 [CARINATIN G]	> 10 µM	25.5%	> 10 µM	> 10 µM	4.9 µM	> 10 µM	46 µM	> 10 µM	> 10 µM	Active	3.4	13.4 µM	–
C=C1C(=O)O[C@@H]2C[C@@H]3[C@]4(CC[C@]5(C)[C@@H]([C@H](C)CC(=O)C=C(C)C)CC[C@@]35C)C[C@]4(CCC(=O)O)[C@H]12 (relative stereo)	> 10 µM	81.2%	> 10 µM	7.3 µM	2.9 µM	5.2 µM	< 8.1 µM	> 10 µM	7.7 µM	Active	–	–	85.7 µM
CC(C)CC(=O)C[C@@H](C)[C@H]1CC[C@@]2(C)[C@@H]3CC[C@H]4[C@](C)(C(=O)O)[C@@H](O)C[C@H](O)[C@@]45C[C@@]35CC[C@]12C [CARINATIN A]	> 10 µM	6%	> 10 µM	> 10 µM	> 10 µM	> 10 µM	27 µM	> 10 µM	> 10 µM	–	1.8	15.4 µM	–
Cc1cn([C@H]2C[C@H](N=[N+]=[N-])[C@@H](CO)O2)c(=O)[nH]c1=O [ZIDOVUDINE]	–	–	–	–	–	–	> 10000 µM	–	–	–	–	0.00395 µM	–
COc1cc2c(ccc3c4cc(OC)c(OC)cc4c[n+](C)c23)cc1O [FAGARONINE]	–	–	–	–	–	–	–	–	–	–	–	–	26.5 µM
CC(C)CC(=O)C[C@@H](C)[C@H]1CC[C@@]2(C)[C@@H]3CC[C@H]4[C@](C)(C(=O)O)[C@@H](O)CC[C@@]45C[C@@]35CC[C@]12C (relative stereo)	> 10 µM	1.9%	> 10 µM	> 10 µM	6.8 µM	> 10 µM	72.5 µM	> 10 µM	> 10 µM	Active	1.2	62.7 µM	–
C=C(C(=O)O)[C@@H]1CC[C@@H]2[C@]3(CC[C@]4(C)[C@@H]([C@H](C)CC(=O)C=C(C)C)CC[C@@]24C)C[C@]13CCC(=O)OC (relative stereo)	> 10 µM	63.7%	> 10 µM	> 10 µM	> 10 µM	> 10 µM	69.5 µM	> 10 µM	> 10 µM	–	1.6	43 µM	–
C=C(C(=O)O)[C@@H]1CC[C@@H]2[C@]3(CC[C@]4(C)[C@@H]([C@H](C)CC(=O)C=C(C)C)CC[C@@]24C)C[C@]13CCC(=O)O	> 10 µM	88.1%	> 10 µM	> 10 µM	> 10 µM	> 10 µM	57.7 µM	> 10 µM	> 10 µM	–	> 7	< 8.3 µM	68.7 µM
